Non-standard residues stand in square brackets, D forms with d. Residues, ends and D or L forms follow the SMILES beside them. NMeY = CN[C@@H](Cc1ccc(O)cc1)C(=O)O; Nle = CCCC[C@H](N)C(=O)O; Orn = NCCC[C@H](N)C(=O)O; Abu = CC[C@H](N)C(=O)O; Aoc = NCCCCCCCC(=O)O
How the values were obtained:
[1] = test system: myocardial infarction (Fisher-344 rats); assay: Serial echocardiography after MI, compared to JI-38 (Example 15, Table 15); type: in vivo, rat; design: key to LVEDD: Left Ventricular End Diastolic Diameter / LVESD: Left Ventricular End Systolic Diameter / VD: Ventricular Diastole / VS: Ventricular Systole / EF: Ejection Fraction / FS: Fraction Shortening: ↓: downward arrow denotes lower than JI-38; ↑: upward arrow denotes greater than JI-38; =denotes same as JI-38; ⬇⬇: double arrow denotes greater effect; ⬆⬆: double arrow denotes greater effect; details: in comparison to JI-38
Description: Echocardiographic measurements were obtained at baseline, 2 days, 1, 2 and 4 weeks. Echocardiographic assessments were performed in anesthetized rats (2% isoflurane inhalation) using a Vevo-770 echocardiogram (Visual Sonics Inc., Toronto, Ontario, Canada) equipped with a 17.5-MHz transducer. Cardiac dimensions: LV end diastolic (LVEDD), end systolic (LVESD) diameters and fractional shortening (FS) were recorded from M-mode images using averaged measurements from 3 to 5 consecutive cardiac cycles according to the American Society of Echocardiography. Ejection fraction (EF) was calculated from bi-dimensional long-axis parasternal views taken through the infarcted area. All images were analyzed using Vevo 770 3.0.0 software (Visual Sonics Inc., Toronto, Ontario, Canada).
(§1) Myocardial infarction (MI) was induced by permanent ligation of the left coronary artery in female 6-month-old Fisher-344 rats. Following experimental myocardial infarction (MI), rats were randomly assigned to receive either placebo, JI-38, or one of the following new analogs of GHRH: MR-30 l(P-21301), MR-303(P-21303), MR-356(P-20356), MR-502(25502), MR-350(P-20350), MR-36 l(P-20361), MR-367(P-20367), MR-403(P-27403), MR-404(P-27404), and MR-409(P-27409) (10 rats per each group). The GHRH peptide agonists were adminsistered starting 2 hours post-surgery, 1 week, 2 week, and 4 week intervals. All treatment was given subcutaneously twice daily. Cardiac performance was assessed by serial echocardiography and hemodynamic analysis derived from pressure-volume loops as described before.
The echocardiographic experiments are shown in FIGS. 10-15 and the results are summarized in Table 15 (results were expressed in comparison to JI-38; downward arrow denotes lower than JI-38; upward arrow denotes greater than JI-38; =denotes same as JI-38; and double arrow denotes greater effect).

[2] = test system: myocardial infarction (Fisher-344 rats); assay: Hemodynamic analysis (pressure-volume loops), body and heart weight after MI, compared to JI-38 (Example 15, Table 16); type: in vivo, rat; design: key to ESP (End-Systolic Pressure) / EDP (End-Diastolic Pressure) / ESV (End-Systolic Volume) / PRSW (Preload Recruitable Stroke Work) / Ees (End-systolic Elastance) / dP/dt max (peak rate of the pressure rise) / dP/dt max_EDV / dP/dt min / TAU (relaxation time constant calculated by Weiss method) / SV (Stroke Volume) / CO (Cardiac Output) / SW (Stroke Work) / EF / Ea/Ees / Ea (arterial Elastance): ↓: downward arrow denotes lower than JI-38; ↑: upward arrow denotes greater than JI-38; =denotes same as JI-38; ⬇⬇: double arrow denotes greater effect; ⬆⬆: double arrow denotes greater effect; details: rat MI model, s.c. twice daily; pressure-volume loops; expressed in comparison to JI-38
Description: Rats were anesthetized by intramuscular injection of a mixture of ketamine (100 mg/kg), xylazine (20 mg/kg) and acepromazine (10 mg/kg). A 2-F micromanometer tipped catheter (SPR-838, Millar Instruments, Houston, Tex.) was inserted into the right carotid artery and advanced retrograde into the left ventricle. Measurements were calibrated by injecting a hypertonic saline (15%) bolus to determine extra-ventricular conductance; relative volume units were converted to actual volume using the cuvette calibration method. All analyses were performed using PVAN 3.0 software (Millar Instruments, Houston, Tex.).
as §1
The hemodynamic studies are shown in FIGS. 16-33 and the results are summarized in Table 16 (results were expressed in comparison to JI-38; downward arrow denotes lower than JI-38; upward arrow denotes greater than JI-38; =denotes same as JI-38; and double arrow denotes greater effect).

GH release [3] = assay: In vivo endocrine activity, GH release after subcutaneous administration (Table 9); details: rat, subcutaneous (s.c.) injection
Description: Subcutaneous Administration. Adult male rats were used and anesthetized with pentobarbital (6 mg/100 g, b.w.), by i.p. injection. […] Blood samples were taken from the jugular vein 5, 15 and/or 30 minutes after the injection. The blood samples were centrifuged, plasma was removed and the GH level was measured byELISA. The results are summarized in terms of potency in Table 9.

GHRH receptor = molecular target: T1, GHRH receptor (Homo sapiens, UniProt Q02643); assay: GHRH receptor binding, competition with 125I-labeled JV-1-42, human pituitary membrane homogenates (Table 7); design: Normal human pituitaries were purchased from the National Hormone and Peptide Program; tissue National Hormone and Peptide Program (A.F. Parlow, Harbor-UCLA Medical Center, Torrance, Calif.); host or cells: normal human pituitary, membrane fraction; details: JI-38 = 1, Table 7
T1 sequence (Q02643 23-423): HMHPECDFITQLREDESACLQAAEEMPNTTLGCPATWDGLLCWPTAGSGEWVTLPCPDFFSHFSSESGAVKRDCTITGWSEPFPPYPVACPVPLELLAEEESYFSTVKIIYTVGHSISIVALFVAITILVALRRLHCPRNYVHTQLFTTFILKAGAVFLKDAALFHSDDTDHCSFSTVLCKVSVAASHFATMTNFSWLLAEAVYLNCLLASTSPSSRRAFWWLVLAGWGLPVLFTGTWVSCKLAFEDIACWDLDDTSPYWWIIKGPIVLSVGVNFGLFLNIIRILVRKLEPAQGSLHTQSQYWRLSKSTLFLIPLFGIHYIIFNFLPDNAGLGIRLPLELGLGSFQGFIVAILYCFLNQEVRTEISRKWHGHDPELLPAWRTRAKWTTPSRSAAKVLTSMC
Description: Normal human pituitaries were purchased from the National Hormone and Peptide Program (A.F. Parlow, Los Angeles, County Harbor-UCLA Medical Center, Torrance, Calif.).

GH release [4] = assay: In vivo endocrine activity, GH release after intravenous administration (Table 8); details: rat, i.v. injection
Description: In vivo tests on endocrine activity of new GHRH agonists (Intravenous administration). For in vivo tests based on intravenous administration, adult male Sprague-Dawley rats were anesthetized with pentobarbital (6 mg/100/g, b.w.), and GHRH agonists were injected 20 minutes after the injection of pentobarbital. Blood samples were taken from the jugular vein (pretreated level), immediately after hGHRH(1-29)NH2 injection (as a control) or after hGHRH analogs injection. Blood samples were taken from the jugular vein 5, 15 and 30 minutes after the injection. The blood samples were centrifuged, plasma was removed and the GH level was measured by ELISA.

Row | SMILES | EF: Ejection Fraction [1] | FS: Fraction Shortening [1] | LVEDD: Left Ventricular End Diastolic Diameter [1] | LVESD: Left Ventricular End Systolic Diameter [1] | VD: Ventricular Diastole [1] | VS: Ventricular Systole [1] | CO (Cardiac Output) [2] | EDP (End-Diastolic Pressure) [2] | EF [2] | ESP (End-Systolic Pressure) [2] | ESV (End-Systolic Volume) [2] | Ea (arterial Elastance) [2] | Ea/Ees [2] | Ees (End-systolic Elastance) [2] | PRSW (Preload Recruitable Stroke Work) [2] | SV (Stroke Volume) [2] | SW (Stroke Work) [2] | TAU (relaxation time constant calculated by Weiss method) [2] | dP/dt max (peak rate of the pressure rise) [2] | dP/dt max_EDV [2] | other results
1 | CCCC[C@H](NC(=O)[C@@H](NC(=O)[C@H](CC(=O)O)NC(=O)[C@H](CCC(N)=O)NC(=O)[C@H](CC(C)C)NC(=O)[C@H](CC(C)C)NC(=O)[C@H](CCCN)NC(=O)[C@H](CCCNC(=N)N)NC(=O)[C@H](C)NC(=O)[C@H](CO)NC(=O)[C@H](CC(C)C)NC(=O)[C@H](CCC(N)=O)NC(=O)[C@H](CC)NC(=O)[C@H](CC(C)C)NC(=O)[C@@H](NC(=O)[C@H](CCCN)NC(=O)[C@H](CCCNC(=N)N)NC(=O)[C@H](Cc1ccc(O)cc1)NC(=O)[C@H](CO)NC(=O)[C@H](CC(N)=O)NC(=O)[C@@H](NC(=O)[C@H](Cc1ccccc1)NC(=O)[C@@H](NC(=O)[C@H](C)NC(=O)[C@H](CC(=O)O)NC(=O)[C@@H](C)NC(=O)[C@H](Cc1ccc(O)cc1)NC)[C@@H](C)CC)[C@@H](C)O)C(C)C)[C@@H](C)CC)C(=O)N[C@@H](CC(=O)O)C(=O)N[C@@H](CCCNC(=N)N)C(=O)NCCCCCCCC(N)=O [Peptide P-21303, [N—Me-Tyr^1, D-Ala^2, Orn^12, Abu^15, Orn^21, Nle^27, Asp^28, Amc^30]hGHRH(1-30)NH2] (H-[NMeY][dA]DAIFTNSYR[Orn]VL[Abu]QLSAR[Orn]LLQDI[Nle]DR[Aoc]-NH2) | ↓ | = | = | = | ↑ | ↑ | = | ↑ | ↑ | ↓ | = | = | = | ↓ | ↓ | = | = | = | ↓ | ↓ | dP/dt min [2]: =; GH releasing potency relative to JI-38 (=1) (GH release [3]; 15 min after): 0.95; GH releasing potency relative to JI-38 (=1) (GH release [3]; 30 min after): 1.45; Relative affinity (Binding potency) vs JI-38 (GHRH receptor): 2.32; GH releasing potency in vivo relative to JI-38 (=1) (GH release [4]; 5 min after): 0.79; GH releasing potency in vivo relative to JI-38 (=1) (GH release [4]; 15 min after): 1.14; GH releasing potency in vivo relative to JI-38 (=1) (GH release [4]; 30 min after): 0.81
2 | CCCC[C@H](NC(=O)[C@@H](NC(=O)[C@H](CC(=O)O)NC(=O)[C@H](CCC(N)=O)NC(=O)[C@H](CC(C)C)NC(=O)[C@H](CC(C)C)NC(=O)[C@H](CCCN)NC(=O)[C@H](CCCNC(=N)N)NC(=O)[C@H](C)NC(=O)[C@H](CO)NC(=O)[C@H](CC(C)C)NC(=O)[C@H](CCC(N)=O)NC(=O)[C@H](CC)NC(=O)[C@H](CC(C)C)NC(=O)[C@@H](NC(=O)[C@H](CCCN)NC(=O)[C@H](CCCNC(=N)N)NC(=O)[C@H](Cc1ccc(O)cc1)NC(=O)[C@H](CO)NC(=O)[C@H](CC(N)=O)NC(=O)[C@@H](NC(=O)[C@H](Cc1ccccc1)NC(=O)[C@@H](NC(=O)[C@H](C)NC(=O)[C@H](CC(=O)O)NC(=O)[C@H](C)NC(=O)[C@H](Cc1ccc(O)cc1)NC)[C@@H](C)CC)[C@@H](C)O)C(C)C)[C@@H](C)CC)C(=O)N[C@@H](CC(=O)O)C(=O)N[C@@H](CCCNC(=N)N)C(=O)NCCCCCCCC(N)=O [Peptide P-21301, [N—Me-Tyr^1, Orn^12, Abu^15, Orn^21, Nle^27, Asp^28, Amc^30]hGHRH(1-30)NH2] (H-[NMeY]ADAIFTNSYR[Orn]VL[Abu]QLSAR[Orn]LLQDI[Nle]DR[Aoc]-NH2) | ↓ | = | ↑ | ↑ | ↑ | ↑ | = | ↑ | ↓ | ↓ | ↑ | = | ↑ | = | = | = | ↓ | = | ↓ | ↓ | dP/dt min [2]: =; GH releasing potency relative to JI-38 (=1) (GH release [3]; 15 min after): 0.41; GH releasing potency relative to JI-38 (=1) (GH release [3]; 30 min after): 0.74; Relative affinity (Binding potency) vs JI-38 (GHRH receptor): 1.45; GH releasing potency in vivo relative to JI-38 (=1) (GH release [4]; 5 min after): 0.79; GH releasing potency in vivo relative to JI-38 (=1) (GH release [4]; 15 min after): 0.92; GH releasing potency in vivo relative to JI-38 (=1) (GH release [4]; 30 min after): 1.00

From US10555987B2, “GHRH agonists for the treatment of ischemic disorders” (UNIVERSITY OF MIAMI, priority 2012, dated 2020)
